Source: patent publication US20250353891A1 (MEDIMMUNE LIMITED, priority 2022, published 2025)
Starred links: 1 amine or outer side, 2 acyl side, 3 side chain; linkers in the order of their positions; H or OH if unused. Non-standard residues stand in square brackets, D forms with d. Residues, ends and D or L forms follow the SMILES beside them. Groups on a side chain read outwards from the residue. *: point of attachment. C20 diacid = O=C(O)CCCCCCCCCCCCCCCCCCC(=O)*; C18 diacid = O=C(O)CCCCCCCCCCCCCCCCC(=O)*; γGlu = O=C(O)[C@H](CCC(=O)[*:2])N[*:1]; αMeF = C[C@](N)(Cc1ccccc1)C(=O)O; AEEA = NCCOCCOCC(=O)O; Aib = CC(C)(N)C(=O)O

How the values were obtained:
[1] = target: human GLP-1 receptor (hGLP-1R) (Homo sapiens, UniProt P43220); test: cAMP production (HTRF) in CHO cells expressing hGLP-1R; format: cell-based; set-up: expressed in transfected cells; conditions: for EC50: Table 7, peptides modified at position 20, cAMP in CHO hGLP-1R cells, geometric mean, read-out: hGLP-1R EC50; for % Relative Potency Ratio: Table 7, % GLP-1R activity relative to GLP-1 / % GlucR activity relative to glucagon
Summary of the method: (§1)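 Potency values represent EC50 from 4-parameter logistic curves of HTRF % Delta F signal. Receptor-expressing CHO cells (hGCGR 2×10^5 cells/mL, hGLP-1R 1×10^5 cells/mL) were exposed for 30 min at room temperature before two-step cAMP detection.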

[2] = target: human glucagon receptor (hGCGR) (Homo sapiens, UniProt P47871); test: cAMP production (HTRF) in CHO cells expressing hGCGR; format: cell-based; set-up: expressed in transfected cells; conditions: Table 7, peptides modified at position 20; cAMP in CHO hGCGR cells; geometric mean; read-out: hGluc-R EC50
Summary of the method: as §1

human GLP-1 receptor (hGLP-1R), sequence (P43220 24-463): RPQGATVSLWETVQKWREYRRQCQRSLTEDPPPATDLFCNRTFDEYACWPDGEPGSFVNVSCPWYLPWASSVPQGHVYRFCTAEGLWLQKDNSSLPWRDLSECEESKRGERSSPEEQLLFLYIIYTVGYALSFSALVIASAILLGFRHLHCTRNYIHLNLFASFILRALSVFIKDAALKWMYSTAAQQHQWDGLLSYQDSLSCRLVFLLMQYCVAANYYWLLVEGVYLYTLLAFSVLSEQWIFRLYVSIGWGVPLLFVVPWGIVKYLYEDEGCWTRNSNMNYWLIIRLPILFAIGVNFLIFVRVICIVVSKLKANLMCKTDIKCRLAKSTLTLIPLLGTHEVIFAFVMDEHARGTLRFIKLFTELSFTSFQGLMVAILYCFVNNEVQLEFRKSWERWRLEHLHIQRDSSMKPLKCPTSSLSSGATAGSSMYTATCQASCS
human glucagon receptor (hGCGR), sequence (P47871 26-477): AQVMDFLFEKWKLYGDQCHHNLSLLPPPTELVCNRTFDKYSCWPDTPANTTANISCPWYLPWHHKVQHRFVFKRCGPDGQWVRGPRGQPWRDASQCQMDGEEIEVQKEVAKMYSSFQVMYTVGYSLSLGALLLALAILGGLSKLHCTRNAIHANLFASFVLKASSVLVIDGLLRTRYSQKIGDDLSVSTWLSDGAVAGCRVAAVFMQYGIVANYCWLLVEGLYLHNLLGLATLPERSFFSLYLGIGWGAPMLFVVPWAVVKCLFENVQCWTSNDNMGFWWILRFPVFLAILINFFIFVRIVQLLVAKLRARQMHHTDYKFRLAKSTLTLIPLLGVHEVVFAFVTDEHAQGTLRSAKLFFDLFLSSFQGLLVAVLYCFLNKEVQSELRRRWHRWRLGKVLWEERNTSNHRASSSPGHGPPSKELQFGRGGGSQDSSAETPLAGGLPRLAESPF

SMILES | EC50 [1] | % Relative Potency Ratio [1] | EC50 [2]
CC[C@H](C)[C@H](NC(=O)C(C)(C)NC(=O)[C@H](CCC(N)=O)NC(=O)[C@@H](NC(=O)[C@H](Cc1ccccc1)NC(=O)[C@H](CC(=O)O)NC(=O)[C@H](CCCCNC(=O)COCCOCCNC(=O)COCCOCCNC(=O)CC[C@H](NC(=O)CC[C@H](NC(=O)CCCCCCCCCCCCCCCCCCC(=O)O)C(=O)O)C(=O)O)NC(=O)[C@H](C)NC(=O)[C@H](C)NC(=O)[C@H](CCCNC(=N)N)NC(=O)[C@H](CO)NC(=O)[C@H](CC(=O)O)NC(=O)[C@H](CC(C)C)NC(=O)[C@](C)(Cc1ccccc1)NC(=O)[C@H](CCCCN)NC(=O)[C@H](CO)NC(=O)[C@@H](NC(=O)[C@H](CC(=O)O)NC(=O)[C@H](CO)NC(=O)[C@@H](NC(=O)[C@](C)(Cc1ccccc1)NC(=O)[C@H](CO)NC(=O)CNC(=O)[C@H](Cc1c[nH]cn1)NC(=O)C(C)(C)NC(=O)[C@@H](N)Cc1c[nH]cn1)[C@@H](C)O)C(C)C)C(C)C)C(=O)N[C@@H](C)C(=O)N[C@@H](CC(N)=O)C(=O)N[C@H](C(N)=O)[C@@H](C)O [Peptide 221] (H-H[Aib]HGS[αMeF]TSDVSK[αMeF]LDSRAAK([AEEA-AEEA-γGlu-γGlu-C20 diacid])DFVQ[Aib]IANT-NH2; N-terminus assumed) | 0.122 nM | 2.0 | 0.123 nM
CC[C@H](C)[C@H](NC(=O)[C@H](CO)NC(=O)[C@H](CCC(N)=O)NC(=O)[C@@H](NC(=O)[C@H](Cc1ccccc1)NC(=O)[C@H](CC(=O)O)NC(=O)[C@H](CCCCNC(=O)COCCOCCNC(=O)COCCOCCNC(=O)CC[C@H](NC(=O)CCCCCCCCCCCCCCCCC(=O)O)C(=O)O)NC(=O)[C@H](C)NC(=O)[C@H](C)NC(=O)[C@H](CCC(N)=O)NC(=O)[C@H](CO)NC(=O)[C@H](CC(=O)O)NC(=O)[C@H](CC(C)C)NC(=O)[C@](C)(Cc1ccccc1)NC(=O)[C@H](CCCCN)NC(=O)[C@H](CO)NC(=O)[C@@H](NC(=O)[C@H](CC(=O)O)NC(=O)[C@H](CO)NC(=O)[C@@H](NC(=O)[C@](C)(Cc1ccccc1)NC(=O)[C@H](CO)NC(=O)CNC(=O)[C@H](Cc1c[nH]cn1)NC(=O)C(C)(C)NC(=O)[C@@H](N)Cc1c[nH]cn1)[C@@H](C)O)C(C)C)C(C)C)C(=O)N[C@@H](C)C(=O)N[C@@H](CC(N)=O)C(=O)N[C@H](C(N)=O)[C@@H](C)O [Peptide 222] (H-H[Aib]HGS[αMeF]TSDVSK[αMeF]LDSQAAK([AEEA-AEEA-γGlu-C18 diacid])DFVQSIANT-NH2) | 0.151 nM | 3.2 | 0.244 nM
CC[C@H](C)[C@H](NC(=O)C(C)(C)NC(=O)[C@H](CCC(N)=O)NC(=O)[C@@H](NC(=O)[C@](C)(Cc1ccccc1)NC(=O)[C@H](CC(=O)O)NC(=O)[C@H](CCCCNC(=O)COCCOCCNC(=O)COCCOCCNC(=O)CC[C@H](NC(=O)CCCCCCCCCCCCCCCCC(=O)O)C(=O)O)NC(=O)[C@H](C)NC(=O)[C@H](C)NC(=O)[C@H](CCCNC(=N)N)NC(=O)[C@H](CO)NC(=O)[C@H](CC(=O)O)NC(=O)[C@H](CC(C)C)NC(=O)[C@](C)(Cc1ccccc1)NC(=O)[C@H](CCCCN)NC(=O)[C@H](CO)NC(=O)[C@@H](NC(=O)[C@H](CC(=O)O)NC(=O)[C@H](CO)NC(=O)[C@@H](NC(=O)[C@](C)(Cc1ccccc1)NC(=O)[C@H](CO)NC(=O)CNC(=O)[C@H](Cc1c[nH]cn1)NC(=O)C(C)(C)NC(=O)[C@@H](N)Cc1c[nH]cn1)[C@@H](C)O)C(C)C)C(C)C)C(=O)N[C@@H](C)C(=O)N[C@@H](CC(N)=O)C(=O)N[C@H](C(=O)NCC(=O)NCC(N)=O)[C@@H](C)O [Peptide 225] (H-H[Aib]HGS[αMeF]TSDVSK[αMeF]LDSRAAK([AEEA-AEEA-γGlu-C18 diacid])D[αMeF]VQ[Aib]IANTGG-NH2) | 0.0349 nM | 8.2 | 0.145 nM
CC[C@H](C)[C@H](NC(=O)C(C)(C)NC(=O)[C@H](CCC(=O)O)NC(=O)[C@@H](NC(=O)[C@](C)(Cc1ccccc1)NC(=O)[C@H](CC(=O)O)NC(=O)[C@H](CCCCNC(=O)COCCOCCNC(=O)COCCOCCNC(=O)CC[C@H](NC(=O)CCCCCCCCCCCCCCCCC(=O)O)C(=O)O)NC(=O)[C@H](C)NC(=O)[C@H](C)NC(=O)[C@H](CCCNC(=N)N)NC(=O)[C@H](CO)NC(=O)[C@H](CC(=O)O)NC(=O)[C@H](CC(C)C)NC(=O)[C@](C)(Cc1ccccc1)NC(=O)[C@H](CCCCN)NC(=O)[C@H](CO)NC(=O)[C@@H](NC(=O)[C@H](CC(=O)O)NC(=O)[C@H](CO)NC(=O)[C@@H](NC(=O)[C@](C)(Cc1ccccc1)NC(=O)[C@H](CO)NC(=O)CNC(=O)[C@H](Cc1c[nH]cn1)NC(=O)C(C)(C)NC(=O)[C@@H](N)Cc1c[nH]cn1)[C@@H](C)O)C(C)C)C(C)C)C(=O)N[C@@H](C)C(=O)N[C@@H](CC(N)=O)C(=O)N[C@H](C(N)=O)[C@@H](C)O [Peptide 226] (H-H[Aib]HGS[αMeF]TSDVSK[αMeF]LDSRAAK([AEEA-AEEA-γGlu-C18 diacid])D[αMeF]VE[Aib]IANT-NH2) | 0.0827 nM | 0.7 | 0.0274 nM
CC[C@H](C)[C@H](NC(=O)C(C)(C)NC(=O)[C@H](C)NC(=O)[C@@H](NC(=O)[C@](C)(Cc1ccccc1)NC(=O)[C@H](CC(=O)O)NC(=O)[C@H](CCCCNC(=O)COCCOCCNC(=O)COCCOCCNC(=O)CC[C@H](NC(=O)CCCCCCCCCCCCCCCCC(=O)O)C(=O)O)NC(=O)[C@H](C)NC(=O)[C@H](C)NC(=O)[C@H](CCCNC(=N)N)NC(=O)[C@H](CO)NC(=O)[C@H](CC(=O)O)NC(=O)[C@H](CC(C)C)NC(=O)[C@](C)(Cc1ccccc1)NC(=O)[C@H](CCCCN)NC(=O)[C@H](CO)NC(=O)[C@@H](NC(=O)[C@H](CC(=O)O)NC(=O)[C@H](CO)NC(=O)[C@@H](NC(=O)[C@](C)(Cc1ccccc1)NC(=O)[C@H](CO)NC(=O)CNC(=O)[C@H](Cc1c[nH]cn1)NC(=O)C(C)(C)NC(=O)[C@@H](N)Cc1c[nH]cn1)[C@@H](C)O)C(C)C)[C@@H](C)CC)C(=O)N[C@@H](C)C(=O)N[C@@H](CC(N)=O)C(=O)N[C@H](C(N)=O)[C@@H](C)O [Peptide 227] (H-H[Aib]HGS[αMeF]TSDVSK[αMeF]LDSRAAK([AEEA-AEEA-γGlu-C18 diacid])D[αMeF]IA[Aib]IANT-NH2) | 0.0705 nM | 0.8 | 0.0272 nM
CC[C@H](C)[C@H](NC(=O)[C@H](Cc1c[nH]c2ccccc12)NC(=O)[C@H](CCC(N)=O)NC(=O)[C@@H](NC(=O)[C@](C)(Cc1ccccc1)NC(=O)[C@H](CC(=O)O)NC(=O)[C@H](CCCCNC(=O)COCCOCCNC(=O)COCCOCCNC(=O)CC[C@H](NC(=O)CC[C@H](NC(=O)CCCCCCCCCCCCCCCCCCC(=O)O)C(=O)O)C(=O)O)NC(=O)[C@H](C)NC(=O)[C@H](C)NC(=O)[C@H](CCCNC(=N)N)NC(=O)[C@H](CO)NC(=O)[C@H](CC(=O)O)NC(=O)[C@H](CC(C)C)NC(=O)[C@](C)(Cc1ccccc1)NC(=O)[C@H](CCCCN)NC(=O)[C@H](CO)NC(=O)[C@@H](NC(=O)[C@H](CC(=O)O)NC(=O)[C@H](CO)NC(=O)[C@@H](NC(=O)[C@](C)(Cc1ccccc1)NC(=O)[C@H](CO)NC(=O)CNC(=O)[C@H](Cc1c[nH]cn1)NC(=O)C(C)(C)NC(=O)[C@@H](N)Cc1c[nH]cn1)[C@@H](C)O)C(C)C)C(C)C)C(=O)N[C@@H](C)C(=O)N[C@@H](CC(N)=O)C(=O)N[C@H](C(N)=O)[C@@H](C)O [Peptide 228] (H-H[Aib]HGS[αMeF]TSDVSK[αMeF]LDSRAAK([AEEA-AEEA-γGlu-γGlu-C20 diacid])D[αMeF]VQWIANT-NH2; N-terminus assumed) | 0.2 nM | 1.7 | 0.177 nM
CC[C@H](C)[C@H](NC(=O)C(C)(C)NC(=O)[C@H](CCC(N)=O)NC(=O)[C@@H](NC(=O)[C@](C)(Cc1ccccc1)NC(=O)[C@H](CC(=O)O)NC(=O)[C@H](CCCCNC(=O)COCCOCCNC(=O)COCCOCCNC(=O)CC[C@H](NC(=O)CC[C@H](NC(=O)CCCCCCCCCCCCCCCCC(=O)O)C(=O)O)C(=O)O)NC(=O)[C@H](C)NC(=O)[C@H](C)NC(=O)[C@H](CCCNC(=N)N)NC(=O)[C@H](CO)NC(=O)[C@H](CC(=O)O)NC(=O)[C@H](CC(C)C)NC(=O)[C@](C)(Cc1ccccc1)NC(=O)[C@H](CCCCN)NC(=O)[C@H](CO)NC(=O)[C@@H](NC(=O)[C@H](CC(=O)O)NC(=O)[C@H](CO)NC(=O)[C@@H](NC(=O)[C@](C)(Cc1ccccc1)NC(=O)[C@H](CO)NC(=O)CNC(=O)[C@H](Cc1c[nH]cn1)NC(=O)C(C)(C)NC(=O)[C@@H](N)Cc1c[nH]cn1)[C@@H](C)O)C(C)C)C(C)C)C(=O)N[C@@H](C)C(=O)N[C@@H](CC(N)=O)C(=O)N[C@H](C(N)=O)[C@@H](C)O [Peptide 231] (H-H[Aib]HGS[αMeF]TSDVSK[αMeF]LDSRAAK([AEEA-AEEA-γGlu-γGlu-C18 diacid])D[αMeF]VQ[Aib]IANT-NH2) | 0.0499 nM | 2.3 | 0.0585 nM
CC[C@H](C)[C@H](NC(=O)C(C)(C)NC(=O)[C@H](CCC(N)=O)NC(=O)[C@@H](NC(=O)[C@](C)(Cc1ccccc1)NC(=O)[C@H](CC(=O)O)NC(=O)[C@H](CCCCNC(=O)COCCOCCNC(=O)COCCOCCNC(=O)CC[C@H](NC(=O)CC[C@H](NC(=O)CCCCCCCCCCCCCCCCCCC(=O)O)C(=O)O)C(=O)O)NC(=O)[C@H](C)NC(=O)[C@H](C)NC(=O)[C@H](CCCNC(=N)N)NC(=O)[C@H](CO)NC(=O)[C@H](CC(=O)O)NC(=O)[C@H](CC(C)C)NC(=O)[C@](C)(Cc1ccccc1)NC(=O)[C@H](CCCCN)NC(=O)[C@H](CO)NC(=O)[C@@H](NC(=O)[C@H](CC(=O)O)NC(=O)[C@H](CO)NC(=O)[C@@H](NC(=O)[C@](C)(Cc1ccccc1)NC(=O)[C@H](CO)NC(=O)CNC(=O)[C@H](Cc1c[nH]cn1)NC(=O)C(C)(C)NC(=O)[C@@H](N)Cc1c[nH]cn1)[C@@H](C)O)C(C)C)C(C)C)C(=O)N[C@@H](C)C(=O)N[C@@H](CC(N)=O)C(=O)N[C@H](C(=O)NCC(=O)NCC(N)=O)[C@@H](C)O [Peptide 232] (H-H[Aib]HGS[αMeF]TSDVSK[αMeF]LDSRAAK([AEEA-AEEA-γGlu-γGlu-C20 diacid])D[αMeF]VQ[Aib]IANTGG-NH2; N-terminus assumed) | 0.11 nM | 18.4 | 1.02 nM
